Laboratory results as given in PubChem BioAssay AID1959 (Broad Institute, 2009).
Activity calls are given as the source filed them.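 Rule for the calls: active = growth-inhibition EC50 no more than tenfold above the top tested dose; inconclusive = flat fit between 30% and 70% inhibition, or unreliable fit; inactive = EC50 more than tenfold above the top tested dose.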

Tested on: E. coli NEB5alpha growth, BacTiter-Glo luminescence, 4 h
Test: antibacterial activity against E. coli NEB5alpha – luminescence, counter-screen for MEX-5/POS-1 RNA-binding inhibitor project, dose response (AID 1959);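 note: pUC19-transformed ampicillin-resistant cells grown in LB with ampicillin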

For `O=C(O)c1ccccc1N(c1ccccc1)c1ccccc1`, the EC50 was > 11 µM (inactive).
For `O=C(O)C(=O)/C(=C\c1ccsc1)c1ccc2ccccc2n1`, the EC50 was > 11 µM (inactive).
`Cc1ccccc1NC(=O)/C(C#N)=C\c1cc(C)n(-c2ccc(C(=O)O)cc2)c1C` was tested, and the EC50 was > 11 µM (inactive).
In the case of `Cc1[nH][nH]c(=O)c1N=Nc1ccc(S(N)(=O)=O)cc1`, the EC50 is reported as > 11 µM (inactive).
`COc1cc(C2C(C#N)=C(N)OC3=C2C(=O)CCC3)cc2c1OCO2` (centres undefined) was tested, and the EC50 was > 11 µM (inactive).
In the case of `CC1C2C(C)N(C)C(=O)N(C)C2N(C)C(=O)N1C` (centres undefined), the EC50 is reported as > 11 µM (inactive).
For `COc1ccc(-c2nnc(-c3cc4c(ccc5ccccc54)oc3=O)o2)cc1`, the EC50 was > 11 µM (inactive).
`CCOC(=O)c1ccc(-c2ccc(C=O)o2)cc1` was tested, and the EC50 was > 11 µM (inactive).
`O=C(COC(=O)CCc1c[nH]c(=O)[nH]1)Nc1ccccc1Cl` was tested, and the EC50 was > 11 µM (inactive).
In the case of `Cc1ccc(-c2[nH]c3cc(C(N)=O)ccc3c(=O)c2O)cc1`, the EC50 is reported as > 11 µM (inactive).
`COc1ccc(/C=C2\SC(=S)N(CCCC(=O)NC3CCCC3)C2=O)cc1OC` was tested, and the EC50 was > 11 µM (inactive).
`COc1ccc2c(c1)c1nc3ccccc3nc1n2CCn1c(=O)oc2ccccc21` was tested, and the EC50 was > 11 µM (inactive).
`Cc1ccc(N=Cc2cc(Br)cc(Cl)c2O)cc1` was tested, and the EC50 was > 11 µM (inactive).
With `CNc1nnc(-c2cc3ccccc3oc2=O)s1` the EC50 was > 11 µM (inactive).
`Cc1cc(C=C2C(=O)N(C)C(=S)N(C)C2=O)c(C)n1C1CCCC1` was tested, and the EC50 was > 11 µM (inactive).
`CCOc1c(C=C(C#N)C#N)c2ccccc2n1CC` was tested, and the EC50 was > 11 µM (inactive).
In the case of `Cc1cc(C)c(-n2c(O)c(/C=N/NC(=O)c3ccncc3)c(=O)[nH]c2=O)c(C)c1`, the EC50 is reported as > 11 µM (inactive).
In the case of `Cc1cccc(S(=O)(=O)C(C#N)c2nc3ccccc3nc2N2CCOCC2)c1` (centres undefined), the EC50 is reported as > 11 µM (inactive).
`N=c1c(S(=O)(=O)c2ccc(Cl)cc2)cc2c(=O)n3ccccc3nc2n1C1CCCCC1` was tested, and the EC50 was > 11 µM (inactive).
With `CCN(CC)c1ccc(N=Cc2c(O)n(-c3ccc(OC)cc3)c(=O)[nH]c2=O)cc1` the EC50 was > 11 µM (inactive).
For `O=C(NCCN1CCOCC1)c1cccn2c(=O)c3c4c(sc3nc12)CCCC4`, the EC50 was > 11 µM (inactive).
`CC1=CC(C#N)(C#N)C(C#N)(C#N)C(c2ccccc2)N1` (centres undefined) was tested, and the EC50 was > 11 µM (inactive).
In the case of `CC(=NCc1ccc2c(c1)OCO2)c1c(O)n(-c2ccccc2)c(=O)[nH]c1=O`, the EC50 is reported as > 11 µM (inactive).
`C=CCn1c(=O)/c(=C/c2ccc(C)o2)s/c1=C(/C#N)C(=O)c1ccccc1` was tested, and the EC50 was > 11 µM (inactive).
For `NS(=O)(=O)c1ccc(NC(=S)NNC(=O)CCC(=O)Nc2ccccc2Cl)cc1`, the EC50 was > 11 µM (inactive).
With `COc1cc(C(CC(=O)N2CCCC2)c2c(OC)cc(OC)c3ccc(=O)oc23)cc(OC)c1OC` (centres undefined) the EC50 was > 11 µM (inactive).
For `COc1ccc(-n2nc(C(=O)c3cccs3)cc(-c3nc4ccccc4[nH]3)c2=N)cc1`, the EC50 was > 11 µM (inactive).
In the case of `CCOc1ccccc1-n1c(O)c(C=Nc2ccc(N(CC)CC)cc2)c(=O)[nH]c1=O`, the EC50 is reported as > 11 µM (inactive).
Work on `CN(C)[C@@H]1C(=O)C(C(N)=O)=C(O)[C@@]2(O)C(=O)C3=C(O)c4c(O)cccc4[C@@](C)(O)C3[C@H](O)C12` (some centres undefined) yielded an EC50 of 7.38 µM.
In the case of `CCCCCCCCOc1ccc(C2OC34CCCCC3C(C#N)(C#N)C2(C#N)C(=N)O4)cc1` (centres undefined), the EC50 is reported as > 11 µM (inactive).
For `COc1[nH]c(/N=C/c2ccccc2)c(C#N)c1C#N`, the EC50 was > 11 µM (inactive).
With `CN(C)c1ccc(/C=N/NC2=NS(=O)(=O)c3ccccc32)cc1` the EC50 was > 11 µM (inactive).
For `CCn1c(SCc2ccc(C)cc2)nnc1C1CCN(S(=O)(=O)c2ccc(OC)cc2)CC1`, the EC50 was > 11 µM (inactive).
`O=C1NC(=Nc2ccccc2Cl)S/C1=C\c1cc([N+](=O)[O-])ccc1O` was tested, and the EC50 was > 11 µM (inactive).
`COc1ccc(C(=O)N=c2c(C#N)cc3c(=O)n4cccc(C)c4nc3n2Cc2ccco2)cc1` was tested, and the EC50 was > 11 µM (inactive).
In the case of `CCOc1ccc(/C=c2\sc3nc(-c4ccco4)nn3c2=O)cc1OCC`, the EC50 is reported as > 11 µM (inactive).
With `N=c1c(C(=O)NCC2CCCO2)cc2c(=O)n3ccccc3nc2n1Cc1ccccc1Cl` (centres undefined) the EC50 was > 11 µM (inactive).
With `COc1ccc(/C=C2\N=C(C)OC2=O)cc1OC` the EC50 was > 11 µM (inactive).
With `Cc1cc(/C=N/Nc2ccc([N+](=O)[O-])cn2)c(C)n1-c1cccc(C(=O)O)c1` the EC50 was > 11 µM (inactive).
With `CCOc1ccc(-n2c(O)c(/C=C3\C=Nc4ccccc43)c(=O)[nH]c2=O)cc1` the EC50 was > 11 µM (inactive).
For `COc1cccc(OCCn2cc(C=O)c3ccccc32)c1`, the EC50 was > 11 µM (inactive).
For `COc1ccc(C(=O)/C=C/c2ccc(N3CCCCC3)c([N+](=O)[O-])c2)c(OC)c1`, the EC50 was > 11 µM (inactive).
For `COC(=O)c1cccc(-n2c(C)cc(C=O)c2C)c1C`, the EC50 was > 11 µM (inactive).
`Cc1ccc(-c2ccc(CCC(=O)O)n2-c2cccc(C(=O)O)c2)cc1` was tested, and the EC50 was > 11 µM (inactive).
For `O=C1N=c2ccc(Br)cc2=C1c1sc(=O)[nH]c1O`, the EC50 was > 11 µM (inactive).
With `CCOc1cc(N2CCOCC2)c(OCC)cc1NC(C)C(=O)N1CCN(CC)CC1` (centres undefined) the EC50 was > 11 µM (inactive).
`Cc1ccc(N2C(=O)c3cccc4c(N5CCN(C)CC5)ccc(c34)C2=O)c2cccnc12` was tested, and the EC50 was > 11 µM (inactive).
In the case of `CC(C)COc1ccc(/C=C2/Sc3ccccc3C2=O)cc1`, the EC50 is reported as > 11 µM (inactive).
For `CSc1nnc(N2C(=O)C(O)=C(C(=O)c3ccco3)C2c2cccc(Cl)c2)s1` (centres undefined), the EC50 was > 11 µM (inactive).
In the case of `O=C(NCc1ccccn1)C1Nc2ccc(C(F)(F)F)cc2C2C=CCC12` (centres undefined), the EC50 is reported as > 11 µM (inactive).
`COC(=O)c1cc(C(=O)OC)cc(-n2c(C)cc(C=O)c2C)c1` was tested, and the EC50 was > 11 µM (inactive).
`CN=C1S/C(=C\c2ccc(O)c(OC)c2)C(=O)N1C` was tested, and the EC50 was > 11 µM (inactive).
In the case of `C=CCn1c(O)c(C=Nc2ccc(N(CC)CC)cc2)c(=O)[nH]c1=O`, the EC50 is reported as > 11 µM (inactive).
`Cn1c(=O)c(N)c2c3c(c(Br)ccc31)C(=O)c1ccccc1-2` was tested, and the EC50 was > 11 µM (inactive).
`C[C@@H]1Cc2c(O)c(O)cc(O)c2C(=O)O1` was tested, and the EC50 was > 11 µM (inactive).
With `O=C(O)c1ccc(N/N=C/C2=C(N3CCOCC3)C(=C\c3ccccc3)/CC2)cc1` the EC50 was > 11 µM (inactive).
In the case of `O=C1c2cccc3c(O)ccc(c23)C(=O)N1Cc1ccccc1`, the EC50 is reported as > 11 µM (inactive).
In the case of `O=C(CCc1ccc(O)c(O)c1)N/N=C/c1cc2c(cc1[N+](=O)[O-])OCO2`, the EC50 is reported as > 11 µM (inactive).
In the case of `Cc1cc(C=O)c(C)n1-c1ccc(Cl)c(C(=O)O)c1`, the EC50 is reported as > 11 µM (inactive).
With `O=C(N/N=C\C1C(=O)NC(=S)N(c2ccccc2)C1=O)c1ccc(O)cc1` (centres undefined) the EC50 was > 11 µM (inactive).
For `CCN1CCN(Cc2c(O)ccc3c2O/C(=C\c2ccc(C)cc2)C3=O)CC1`, the EC50 was > 11 µM (inactive).
`Fc1ccc(CNc2nc(-c3ccccc3)nc3ccccc23)cc1` was tested, and the EC50 was > 11 µM (inactive).
In the case of `C=CCOc1cccc(C2C(C(=O)c3ccco3)=C(O)C(=O)N2Cc2ccco2)c1` (centres undefined), the EC50 is reported as > 11 µM (inactive).
With `O=C1c2cc(F)ccc2-n2c1nc1ccccc1c2=O` the EC50 was > 11 µM (inactive).
With `COc1ccccc1NC(=O)c1sc2nc(Cc3ccccc3)cc(C(F)(F)F)c2c1N` the EC50 was > 11 µM (inactive).
With `S=C1NC2(CCS1)Oc1ccccc1C1CC(c3ccccc3)=NN12` (centres undefined) the EC50 was > 11 µM (inactive).
In the case of `COc1cccc(C(=O)NCC2CCN(c3ccc(S(=O)(=O)N4CCOCC4)cc3)CC2)c1`, the EC50 is reported as > 11 µM (inactive).
For `CCN(CC)c1ccc(N=Cc2c(O)n(-c3cc(OC)ccc3OC)c(=O)[nH]c2=O)cc1`, the EC50 was > 11 µM (inactive).
In the case of `Cc1c(C=N)c(O)n(C)c(=O)c1C#N`, the EC50 is reported as > 11 µM (inactive).
With `CCc1c(C)nc(SCC(=O)NNC(=O)c2ccco2)[nH]c1=O` the EC50 was > 11 µM (inactive).
For `O=C(O)c1cccc(-n2cccc2/C=C2\NC(=O)N(Cc3ccc(F)cc3)C2=O)c1`, the EC50 was > 11 µM (inactive).
In the case of `O=C1c2cccc3c(N4CCCCC4)ccc(c23)C(=O)N1CCO`, the EC50 is reported as > 11 µM (inactive).
`CC(C)OCCCn1c(=NC(=O)c2cccs2)c(C#N)cc2c(=O)n3ccccc3nc21` was tested, and the EC50 was > 11 µM (inactive).
`Cc1cccc(-c2c3c(=O)n(C)c(=O)n(C)c3c3cccnn23)c1` was tested, and the EC50 was > 11 µM (inactive).
`CC(=O)c1ccc(-c2ccc(/C=C(/Sc3n[nH]c(C)n3)C(=O)O)o2)cc1` was tested, and the EC50 was > 11 µM (inactive).
`Cn1nc(-c2ccc(Cl)cc2)nc2c(=O)n(C)c(=O)nc1-2` was tested, and the EC50 was > 11 µM (inactive).
`COc1ccccc1OCC(=O)N/N=C/c1c(O)ccc2ccccc12` was tested, and the EC50 was > 11 µM (inactive).
`CN=C1S/C(=C\c2ccc(N3CCCC3)c(F)c2)C(=O)N1C` was tested, and the EC50 was > 11 µM (inactive).
With `Cc1cccc(NC2=Nc3ccccc3N3C2=Nc2c(c(C)nn2-c2ccccc2)C3c2ccc(O)c(O)c2)c1` (centres undefined) the EC50 was > 11 µM (inactive).
`CCOC1(OCC)N=C(N)C2(C#N)C(c3ccc(NC(C)=O)cc3)C12C#N` (centres undefined) was tested, and the EC50 was > 11 µM (inactive).
For `COc1cccc(C2C(C(=O)c3cc4cccc(OC)c4o3)=C(O)C(=O)N2c2cc(C)on2)c1OC` (centres undefined), the EC50 was > 11 µM (inactive).
For `O=[N+]([O-])c1ccc(/C=N/n2cnc3ccccc32)s1`, the EC50 was > 11 µM (inactive).
`O=C(NNC(=O)c1ccccc1O)c1ccc(S(=O)(=O)Nc2ccccc2F)cc1` was tested, and the EC50 was > 11 µM (inactive).
With `CCCOc1cccc(C2C(C(=O)c3ccco3)=C(O)C(=O)N2c2nnc(C)s2)c1` (centres undefined) the EC50 was > 11 µM (inactive).
With `c1ccc(-c2nnc(-c3ccccn3)nn2)nc1` the EC50 was > 11 µM (inactive).
With `COC(=O)c1ccc(-n2c(C)cc(/C=N/Nc3nc(C)cc(=O)[nH]3)c2C)cc1` the EC50 was > 11 µM (inactive).
For `CC(C)(C)OC(=O)NCCCC1=CC2=CC(=O)C(C)(OC(=O)c3ccc(Cl)nc3)C(=O)C2=CO1` (centres undefined), the EC50 was > 11 µM (inactive).
`Cc1ccccc1N=Nc1c(O)n(C)c2ccccc12` was tested, and the EC50 was > 11 µM (inactive).
In the case of `N#CC1=C(N)C(C#N)(C#N)[C@H](c2ccsc2)[C@H]2COCC=C12`, the EC50 is reported as > 11 µM (inactive).
For `O=C(N1CCOCC1)N1CCC(n2nnc3cc(F)ccc32)CC1`, the EC50 was > 11 µM (inactive).
`Cc1cccc(NC(=O)c2sc3nc(-c4ccccc4)cn3c2C)n1` was tested, and the EC50 was > 11 µM (inactive).
In the case of `CC1=C(C#N)C(=O)NC(=O)/C1=C\c1ccc(-c2ccc(C)cc2[N+](=O)[O-])o1`, the EC50 is reported as > 11 µM (inactive).
For `CCN1C(=O)C(=Cc2ccc(N3CCOCC3)o2)C(=O)N(CC)C1=S`, the EC50 was > 11 µM (inactive).
`CN1C(=O)C(=Cc2cn(CC(=O)N3CCCC3)c3ccccc23)C(=O)N(C)C1=O` was tested, and the EC50 was > 11 µM (inactive).
